Target: T1, glucocerebrosidase (Gcase) (Homo sapiens, UniProt P04062)
T1 construct: micellar solution containing 10 nM GCase and 100 nM saposin C
T1 sequence (P04062 40-536): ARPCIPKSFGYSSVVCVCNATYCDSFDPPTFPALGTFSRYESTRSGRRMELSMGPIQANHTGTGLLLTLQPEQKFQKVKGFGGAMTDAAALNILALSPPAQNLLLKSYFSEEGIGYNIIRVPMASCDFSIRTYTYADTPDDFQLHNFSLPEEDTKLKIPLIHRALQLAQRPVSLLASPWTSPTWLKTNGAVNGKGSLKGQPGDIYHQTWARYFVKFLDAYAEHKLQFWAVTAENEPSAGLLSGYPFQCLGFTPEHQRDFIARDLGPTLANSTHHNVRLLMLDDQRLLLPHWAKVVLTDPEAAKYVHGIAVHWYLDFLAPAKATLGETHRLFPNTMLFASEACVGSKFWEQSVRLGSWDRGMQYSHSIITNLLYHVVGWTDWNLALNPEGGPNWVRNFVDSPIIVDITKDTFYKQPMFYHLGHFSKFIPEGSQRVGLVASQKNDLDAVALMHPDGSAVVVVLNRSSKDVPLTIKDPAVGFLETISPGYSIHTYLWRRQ
Assay: Glucocerebrosidase (Gcase) activation assay with 4-methylumbelliferyl-beta-D-glucopyranoside substrate, saposin C and phosphatidylserine/triton micelles, fluorescence readout
Format: biochemical
Method in brief: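 Fluorescence (ex 365 nm, em 440 nm) read after glycine pH 12.5 stop of a 15 min room-temperature reaction. GCase 10 nM plus saposin C 100 nM in PS/triton micelles, pH 4.7, preincubated 30 min with compound; substrate solution held 2 mM 4-MU-beta-glucoside. Screened at 1.0 and 0.1 μM; 8-point, 3-fold curves from 5 μM top.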

| SMILES | Percent Gcase Activation, 0.1 μM Test Compound (0.1 μM test compound) | Percent Gcase Activation, 1 μM Test Compound (1 μM test compound) | also measured |
| --- | --- | --- | --- |
| Cc1cc(-c2ccc(F)cc2)nc2c(C(=O)N[C@@H](C)C3CC3)cnn12 [III-7] | – | – | Percent Gcase Activation, 0.1 μM Test Compound (0.1 μM test compound, Table 3A): ** (Gcase activation in the range of 10% up to 20%); Percent Gcase Activation, 1 μM Test Compound (1 μM test compound, Table 3A): +++ (Gcase activation greater than 60%) |
| Cc1cc(-c2noc(C(C)C)n2)nc2c(C(=O)N[C@@H](C)C(F)(F)F)cnn12 [III-401] | *** (greater than 20% Gcase activation) | +++ (Gcase activation greater than 60%) | – |
| Cc1cc(N2CCN(C(C)C)C2=O)nc2c(C(=O)NC(C)C(F)(F)F)cnn12 (centres unmarked) [III-227] | – | – | Percent Gcase Activation, 0.1 μM Test Compound (test compound at 0.1 μM): * (less than 10% Gcase activation); Percent Gcase Activation, 1 μM Test Compound (test compound at 1.0 μM): + (less than 30% Gcase activation) |
| COc1cc(F)cc(-c2cc(C)n3ncc(C(=O)NC(C)C(F)(F)F)c3n2)c1 (centres unmarked) [III-410] | *** (greater than 20% Gcase activation) | +++ (Gcase activation greater than 60%) | – |
| Cc1cc(-n2ccc(Cl)n2)nc2c(C(=O)NC(C3CC3)C(F)(F)F)cnn12 (centres unmarked) [III-107] | – | – | Percent Gcase Activation, 0.1 μM Test Compound (test compound at 0.1 μM): *** (greater than 20% Gcase activation); Percent Gcase Activation, 1 μM Test Compound (test compound at 1.0 μM): +++ (Gcase activation greater than 60%) |
| Cc1cc(N2CC(C(C)C)OC2=O)nc2c(C(=O)N[C@H](C3CC3)C(F)(F)F)cnn12 (some centres unmarked) [III-317] | ** (Gcase activation in the range of 10% up to 20%) | +++ (Gcase activation greater than 60%) | – |
| Cc1cc(-c2cccc(-c3ncco3)c2)nc2c(C(=O)NC(C3CC3)C(F)(F)F)cnn12 (centres unmarked) [III-416] | *** (greater than 20% Gcase activation) | +++ (Gcase activation greater than 60%) | – |
| Cc1cc(-c2nnc(C(C)C)o2)nc2c(C(=O)N[C@@H](C3CC3)C(F)(F)F)cnn12 [III-392] | ** (Gcase activation in the range of 10% up to 20%) | +++ (Gcase activation greater than 60%) | – |
| Cc1cc(-c2cc(F)ccc2C#N)nc2c(C(=O)N[C@@H](C)C(F)(F)F)cnn12 [III-350] | *** (greater than 20% Gcase activation) | +++ (Gcase activation greater than 60%) | – |
| Cc1cc(N2CCN(C(C)C)C2=O)nc2c(C(=O)NC(C)(C)C(F)(F)F)cnn12 [III-231] | – | – | Percent Gcase Activation, 0.1 μM Test Compound (test compound at 0.1 μM): * (less than 10% Gcase activation); Percent Gcase Activation, 1 μM Test Compound (test compound at 1.0 μM): ++ (Gcase activation in the range of 30% up to 60%) |
| Cc1cc(-c2ncccc2F)nc2c(C(=O)NC(C3CC3)C(F)(F)F)cnn12 (centres unmarked) [III-203] | – | – | Percent Gcase Activation, 0.1 μM Test Compound (test compound at 0.1 μM): *** (greater than 20% Gcase activation); Percent Gcase Activation, 1 μM Test Compound (test compound at 1.0 μM): +++ (Gcase activation greater than 60%) |
| Cc1cc(-c2cc(C)n3ncc(C(=O)N[C@H](C)C(F)(F)F)c3n2)co1 [III-338] | *** (greater than 20% Gcase activation) | +++ (Gcase activation greater than 60%) | – |
| Cc1cc(C)n2ncc(C(=O)N[C@@H](C)C3CCCCC3)c2n1 [III-4] | – | – | Percent Gcase Activation, 0.1 μM Test Compound (0.1 μM test compound, Table 3A): *** (greater than 20% Gcase activation); Percent Gcase Activation, 1 μM Test Compound (1 μM test compound, Table 3A): +++ (Gcase activation greater than 60%) |
| Cc1cc(-c2cccc(Cl)n2)nc2c(C(=O)NC(C)(C)C3CC3)cnn12 [III-62] | – | – | Percent Gcase Activation, 0.1 μM Test Compound (0.1 μM test compound, Table 3A): *** (greater than 20% Gcase activation); Percent Gcase Activation, 1 μM Test Compound (1 μM test compound, Table 3A): +++ (Gcase activation greater than 60%) |
| Cc1cc(-c2cccnc2)nc2c(C(=O)NC(C)(C)C3CC3)cnn12 [III-18] | – | – | Percent Gcase Activation, 0.1 μM Test Compound (0.1 μM test compound, Table 3A): ** (Gcase activation in the range of 10% up to 20%); Percent Gcase Activation, 1 μM Test Compound (1 μM test compound, Table 3A): +++ (Gcase activation greater than 60%) |
| COc1ccc(F)c(-c2cc(C)n3ncc(C(=O)N[C@H](C)C(F)(F)F)c3n2)c1 [III-97] | – | – | Percent Gcase Activation, 0.1 μM Test Compound (test compound at 0.1 μM): ** (Gcase activation in the range of 10% up to 20%); Percent Gcase Activation, 1 μM Test Compound (test compound at 1.0 μM): +++ (Gcase activation greater than 60%) |
| Cc1cc(-c2nc3ccccc3n2C)nc2c(C(=O)NC(C3CC3)C(F)(F)F)cnn12 (centres unmarked) [III-312] | ** (Gcase activation in the range of 10% up to 20%) | ++ (Gcase activation in the range of 30% up to 60%) | – |
| Cc1cc(N2CCN(c3ccccc3)C2=O)nc2c(C(=O)N[C@H](C)C(F)(F)F)cnn12 [III-329] | * (less than 10% Gcase activation) | + (less than 30% Gcase activation) | – |
| Cc1cc(C#N)nc2c(C(=O)N[C@@H](C3CC3)C(F)(F)F)cnn12 [III-395] | * (less than 10% Gcase activation) | ++ (Gcase activation in the range of 30% up to 60%) | – |

| SMILES | Percent Gcase Activation, 0.1 μM Test Compound (0.1 μM test compound) | Percent Gcase Activation, 1 μM Test Compound (1 μM test compound) | also measured |
| --- | --- | --- | --- |
| Cc1cc(-c2ccc(F)nc2)nc2c(C(=O)NC(C3CC3)C(F)(F)F)cnn12 (centres unmarked) [III-112] | – | – | Percent Gcase Activation, 0.1 μM Test Compound (test compound at 0.1 μM): *** (greater than 20% Gcase activation); Percent Gcase Activation, 1 μM Test Compound (test compound at 1.0 μM): +++ (Gcase activation greater than 60%) |
| Cc1cc(-c2cccnc2C#N)nc2c(C(=O)N[C@H](C3CC3)C(F)(F)F)cnn12 [III-365] | ** (Gcase activation in the range of 10% up to 20%) | +++ (Gcase activation greater than 60%) | – |
| Cc1cnoc1-c1cc(C)n2ncc(C(=O)N[C@H](C3CC3)C(F)(F)F)c2n1 [III-344] | *** (greater than 20% Gcase activation) | +++ (Gcase activation greater than 60%) | – |
| Cc1cc(-c2ccc(C#N)nc2)nc2c(C(=O)NC(C)(C)C3CC3)cnn12 [III-370] | * (less than 10% Gcase activation) | +++ (Gcase activation greater than 60%) | – |
| Cc1cc(N2CC(C(C)C)OC2=O)nc2c(C(=O)NC(c3ccccc3)C(F)(F)F)cnn12 (centres unmarked) [III-313] | *** (greater than 20% Gcase activation) | +++ (Gcase activation greater than 60%) | – |
| Cc1cc(-c2cccc3c2OCO3)nc2c(C(=O)N[C@@H](C)C3CC3)cnn12 [III-182] | – | – | Percent Gcase Activation, 0.1 μM Test Compound (test compound at 0.1 μM): *** (greater than 20% Gcase activation); Percent Gcase Activation, 1 μM Test Compound (test compound at 1.0 μM): ++ (Gcase activation in the range of 30% up to 60%) |
| Cc1ncc(-c2cc(C)n3ncc(C(=O)N[C@@H](C4CC4)C(F)(F)F)c3n2)cc1F [III-381] | *** (greater than 20% Gcase activation) | +++ (Gcase activation greater than 60%) | – |
| Cc1cc(-c2cccc(F)c2)nc2c(C(=O)N[C@@H](C)C3CC3)cnn12 [III-56] | – | – | Percent Gcase Activation, 0.1 μM Test Compound (0.1 μM test compound, Table 3A): *** (greater than 20% Gcase activation); Percent Gcase Activation, 1 μM Test Compound (1 μM test compound, Table 3A): +++ (Gcase activation greater than 60%) |
| Cc1cc(-c2cccc(F)c2)nc2c(C(=O)NC(C3CC3)C(F)(F)F)cnn12 (centres unmarked) [III-111] | – | – | Percent Gcase Activation, 0.1 μM Test Compound (test compound at 0.1 μM): *** (greater than 20% Gcase activation); Percent Gcase Activation, 1 μM Test Compound (test compound at 1.0 μM): +++ (Gcase activation greater than 60%) |
| Cc1cc(C)n2ncc(C(=O)N[C@H](C)C3CCCCC3)c2n1 [III-3] | – | – | Percent Gcase Activation, 0.1 μM Test Compound (0.1 μM test compound, Table 3A): *** (greater than 20% Gcase activation); Percent Gcase Activation, 1 μM Test Compound (1 μM test compound, Table 3A): +++ (Gcase activation greater than 60%) |
| Cc1cc(C)n2ncc(C(=O)N[C@H]3CC[C@H](OCC(C)C)CC3)c2n1 [III-191] | – | – | Percent Gcase Activation, 0.1 μM Test Compound (test compound at 0.1 μM): * (less than 10% Gcase activation); Percent Gcase Activation, 1 μM Test Compound (test compound at 1.0 μM): +++ (Gcase activation greater than 60%) |
| Cc1cc(N2CC(C)(C)NC2=O)nc2c(C(=O)NC(C3CC3)C(F)(F)F)cnn12 (centres unmarked) [III-319] | ** (Gcase activation in the range of 10% up to 20%) | +++ (Gcase activation greater than 60%) | – |
| Cc1cc(N2CCOCC2)nc2c(C(=O)NC(C)(C)C3CC3)cnn12 [III-59] | – | – | Percent Gcase Activation, 0.1 μM Test Compound (0.1 μM test compound, Table 3A): * (less than 10% Gcase activation); Percent Gcase Activation, 1 μM Test Compound (1 μM test compound, Table 3A): ++ (Gcase activation in the range of 30% up to 60%) |
| Cc1cc(-c2ccc3nc[nH]c3c2)nc2c(C(=O)NC(C3CC3)C(F)(F)F)cnn12 (centres unmarked) [III-307] | *** (greater than 20% Gcase activation) | ++ (Gcase activation in the range of 30% up to 60%) | – |
| Cc1oc(C#N)cc1-c1cc(C)n2ncc(C(=O)NC(C3CC3)C(F)(F)F)c2n1 (centres unmarked) [III-242] | – | – | Percent Gcase Activation, 0.1 μM Test Compound (test compound at 0.1 μM): *** (greater than 20% Gcase activation); Percent Gcase Activation, 1 μM Test Compound (test compound at 1.0 μM): +++ (Gcase activation greater than 60%) |
| Cc1cc(N2CCCCC2)n2ncc(C(=O)NC(C)(C)C3CC3)c2n1 [III-22] | – | – | Percent Gcase Activation, 0.1 μM Test Compound (0.1 μM test compound, Table 3A): * (less than 10% Gcase activation); Percent Gcase Activation, 1 μM Test Compound (1 μM test compound, Table 3A): ++ (Gcase activation in the range of 30% up to 60%) |
| Cc1cc(N2CC(C)(C)OC2=O)nc2c(C(=O)N[C@H](C3CC3)C(F)(F)F)cnn12 [III-358] | * (less than 10% Gcase activation) | ++ (Gcase activation in the range of 30% up to 60%) | – |
| Cc1cc(-c2cc(F)c3ocnc3c2)nc2c(C(=O)N[C@@H](C)C(F)(F)F)cnn12 [III-297] | *** (greater than 20% Gcase activation) | +++ (Gcase activation greater than 60%) | – |

From patent publication US10934298B2, “Substituted pyrazolo[1,5-a]pyrimidines for the treatment of medical disorders” (BIAL—BioTech Investments, Inc., priority 2016, dated 2021)
